Laboratory results: PubChem BioAssay (NCI)
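Following 48 hours of exposure in 96-well plates, responses at five concentrations were used to interpolate endpoints linearly. GI50 = concentration required for 50% inhibition of growth. TGI denotes the concentration required for complete inhibition of growth.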

What was measured:
Assay in all cases: inhibition of tumour cell growth, NCI panel, 48 h
786-0 renal = system: 786-0 renal
A498 renal = system: A498 renal
A549 NSCLC = system: A549 NSCLC
ACHN renal = system: ACHN renal
BT-549 breast = system: BT-549 breast
CAKI-1 renal = system: CAKI-1 renal
COLO 205 colon = system: COLO 205 colon
DU-145 prostate = system: DU-145 prostate
EKVX NSCLC = system: EKVX NSCLC
HCC-2998 colon = system: HCC-2998 colon
HCT-116 colon = system: HCT-116 colon
HCT-15 colon = system: HCT-15 colon
HOP-62 NSCLC = system: HOP-62 NSCLC
HOP-92 NSCLC = system: HOP-92 NSCLC
HS 578T breast = system: HS 578T breast
HT29 colon = system: HT29 colon
IGROV1 ovarian = system: IGROV1 ovarian
K-562 leukemia = system: K-562 leukemia
KM12 colon = system: KM12 colon
LOX IMVI melanoma = system: LOX IMVI melanoma
M14 melanoma = system: M14 melanoma
MALME-3M melanoma = system: MALME-3M melanoma
MCF7 breast = system: MCF7 breast
MDA-MB-231 breast = system: MDA-MB-231 breast
MDA-MB-435 = system: MDA-MB-435
MOLT-4 leukemia = system: MOLT-4 leukemia
NCI-H226 lung = system: NCI-H226 lung
NCI-H23 lung = system: NCI-H23 lung
NCI-H460 lung = system: NCI-H460 lung
NCI-H522 lung = system: NCI-H522 lung
NCI/ADR-RES ovarian = system: NCI/ADR-RES ovarian
OVCAR-3 ovarian = system: OVCAR-3 ovarian
OVCAR-4 ovarian = system: OVCAR-4 ovarian
OVCAR-5 ovarian = system: OVCAR-5 ovarian
OVCAR-8 ovarian = system: OVCAR-8 ovarian
PC-3 prostate = system: PC-3 prostate
RPMI-8226 leukemia = system: RPMI-8226 leukemia
RXF 393 renal = system: RXF 393 renal
SF-268 CNS = system: SF-268 CNS
SF-295 CNS = system: SF-295 CNS
SF-539 CNS = system: SF-539 CNS
SK-MEL-2 melanoma = system: SK-MEL-2 melanoma
SK-MEL-28 melanoma = system: SK-MEL-28 melanoma
SK-MEL-5 melanoma = system: SK-MEL-5 melanoma
SK-OV-3 ovarian = system: SK-OV-3 ovarian
SN12C renal = system: SN12C renal
SNB-19 CNS = system: SNB-19 CNS
SNB-75 CNS = system: SNB-75 CNS
SW-620 colon = system: SW-620 colon
T-47D breast = system: T-47D breast
TK-10 renal = system: TK-10 renal
U251 CNS = system: U251 CNS
UACC-257 melanoma = system: UACC-257 melanoma
UACC-62 melanoma = system: UACC-62 melanoma
UO-31 renal = system: UO-31 renal
HL-60(TB) leukemia = system: HL-60(TB) leukemia
SR leukemia = system: SR leukemia

## O=C(NCCCCOCC#Cc1ccccc1C#CCS(=O)(=O)c1ccccc1)c1cc2ccccc2[nH]1
786-0 renal
  GI50: 12.8 µM
  TGI: 34.8 µM
A498 renal
  GI50: 25.8 µM
  TGI: > 50 µM
A549 NSCLC
  GI50: 16.8 µM
  TGI: > 50 µM
ACHN renal
  GI50: 9.64 µM
  TGI: 22.9 µM
BT-549 breast
  GI50: 8.38 µM
  TGI: > 27.1 µM
CAKI-1 renal
  GI50: 14.9 µM
  TGI: > 38.2 µM
COLO 205 colon
  GI50: 10.9 µM
  TGI: 28.1 µM
DU-145 prostate
  GI50: 18.1 µM
  TGI: > 50 µM
EKVX NSCLC
  GI50: 22.5 µM
  TGI: > 50 µM
HCC-2998 colon
  GI50: 12 µM
  TGI: 32.4 µM
HCT-116 colon
  GI50: 9.63 µM
  TGI: 26.6 µM
HCT-15 colon
  GI50: 7.21 µM
  TGI: 15.7 µM
HOP-62 NSCLC
  GI50: 21.5 µM
  TGI: > 50 µM
HOP-92 NSCLC
  GI50: 1.39 µM
  TGI: 15.7 µM
HS 578T breast
  GI50: 21.9 µM
  TGI: > 50 µM
HT29 colon
  GI50: 13.7 µM
  TGI: > 50 µM
IGROV1 ovarian
  GI50: 2.68 µM
  TGI: 7.03 µM
K-562 leukemia
  GI50: 6.83 µM
  TGI: > 50 µM
KM12 colon
  GI50: 17.5 µM
  TGI: > 50 µM
LOX IMVI melanoma
  GI50: 1.58 µM
  TGI: 4.8 µM
M14 melanoma
  GI50: 12.1 µM
  TGI: 36.3 µM
MALME-3M melanoma
  GI50: 7.85 µM
  TGI: 24.1 µM
MCF7 breast
  GI50: 8.91 µM
  TGI: > 26.1 µM
MDA-MB-231 breast
  GI50: 9.59 µM
  TGI: 27.4 µM
MDA-MB-435
  GI50: 10.6 µM
  TGI: 30.3 µM
MOLT-4 leukemia
  TGI: > 10.1 µM
NCI-H226 lung
  GI50: 9.85 µM
  TGI: 25 µM
NCI-H23 lung
  GI50: 7.25 µM
  TGI: 16 µM
NCI-H460 lung
  GI50: 14.4 µM
  TGI: > 50 µM
NCI-H522 lung
  GI50: 7.79 µM
  TGI: 16.4 µM
NCI/ADR-RES ovarian
  GI50: 7.99 µM
  TGI: 25 µM
OVCAR-3 ovarian
  GI50: 14 µM
  TGI: > 35 µM
OVCAR-4 ovarian
  GI50: 5.56 µM
  TGI: 22.7 µM
OVCAR-5 ovarian
  GI50: 26.8 µM
  TGI: > 50 µM
OVCAR-8 ovarian
  GI50: 11.4 µM
  TGI: 48.9 µM
PC-3 prostate
  GI50: 7.1 µM
  TGI: 36.5 µM
RPMI-8226 leukemia
  GI50: 2.78 µM
  TGI: 13.2 µM
RXF 393 renal
  GI50: 12.2 µM
  TGI: 38.5 µM
SF-268 CNS
  GI50: 12.4 µM
  TGI: > 43.1 µM
SF-295 CNS
  GI50: 15.9 µM
  TGI: > 44.7 µM
SF-539 CNS
  GI50: 12.1 µM
  TGI: 26.8 µM
SK-MEL-2 melanoma
  GI50: 20.9 µM
  TGI: > 50 µM
SK-MEL-28 melanoma
  GI50: 9.82 µM
  TGI: 26.7 µM
SK-MEL-5 melanoma
  GI50: 7.86 µM
  TGI: 16.3 µM
SK-OV-3 ovarian
  GI50: 19.5 µM
  TGI: > 50 µM
SN12C renal
  GI50: 10 µM
  TGI: 24.9 µM
SNB-19 CNS
  GI50: 15.1 µM
  TGI: > 50 µM
SNB-75 CNS
  GI50: 12.5 µM
  TGI: 27.3 µM
SW-620 colon
  GI50: 11.5 µM
  TGI: > 45.5 µM
T-47D breast
  GI50: 12.3 µM
  TGI: > 37.5 µM
TK-10 renal
  GI50: 23.5 µM
  TGI: > 50 µM
U251 CNS
  GI50: 9.64 µM
  TGI: 22 µM
UACC-257 melanoma
  GI50: 22.4 µM
  TGI: > 50 µM
UACC-62 melanoma
  GI50: 8.29 µM
  TGI: 16.6 µM
UO-31 renal
  GI50: 4.05 µM
  TGI: 11.8 µM

## N=C(N)c1ccc(-c2ccc(-c3ccc(F)cc3)s2)s1
A498 renal
  GI50: 1.95 µM
  TGI: 4.65 µM
CAKI-1 renal
  GI50: 1.68 µM
  TGI: 3.08 µM
DU-145 prostate
  GI50: 1.72 µM
  TGI: 3.19 µM
HS 578T breast
  GI50: 2.19 µM
  TGI: 4.85 µM
M14 melanoma
  GI50: 1.89 µM
  TGI: 3.4 µM
MDA-MB-435
  GI50: 1.59 µM
  TGI: 2.93 µM
NCI-H226 lung
  GI50: 14.2 µM
  TGI: 54.2 µM
RXF 393 renal
  GI50: 1.75 µM
  TGI: 3.34 µM
SK-MEL-5 melanoma
  GI50: 1.81 µM
  TGI: 3.2 µM
SK-OV-3 ovarian
  GI50: 1.8 µM
  TGI: 3.57 µM
TK-10 renal
  GI50: 1.72 µM
  TGI: 3.14 µM
UACC-257 melanoma
  GI50: 2.19 µM
  TGI: 4.15 µM

## COc1ccc2[nH]c(O)c(/C=c3/cc4c(c(-c5ccc(F)cc5)n3)=Nc3ccccc3-4)c2c1
A498 renal
  GI50: 13.2 µM
  TGI: 34.3 µM
A549 NSCLC
  GI50: 2.31 µM
  TGI: 6.34 µM
ACHN renal
  GI50: 10.3 µM
  TGI: 22.5 µM
BT-549 breast
  GI50: 1.8 µM
  TGI: 3.57 µM
CAKI-1 renal
  GI50: 18.2 µM
  TGI: 36.8 µM
DU-145 prostate
  GI50: 2.97 µM
  TGI: 7.96 µM
EKVX NSCLC
  GI50: 23.2 µM
  TGI: > 100 µM
HCC-2998 colon
  GI50: 3.3 µM
  TGI: 12.6 µM
HCT-116 colon
  GI50: 1.67 µM
  TGI: 3.04 µM
HCT-15 colon
  GI50: 1.91 µM
  TGI: 4.35 µM
HL-60(TB) leukemia
  GI50: 9.2 µM
  TGI: > 100 µM
HOP-62 NSCLC
  GI50: 1.88 µM
  TGI: 3.69 µM
HOP-92 NSCLC
  GI50: 13.6 µM
  TGI: 41.3 µM
HS 578T breast
  GI50: 2.02 µM
  TGI: 7.48 µM
HT29 colon
  GI50: 1.94 µM
  TGI: 3.85 µM
IGROV1 ovarian
  GI50: 19.6 µM
  TGI: 48.8 µM
K-562 leukemia
  GI50: 2.45 µM
  TGI: 7.95 µM
KM12 colon
  GI50: 1.78 µM
  TGI: 4.46 µM
LOX IMVI melanoma
  GI50: 1.64 µM
  TGI: 3.2 µM
M14 melanoma
  GI50: 1.98 µM
  TGI: 3.85 µM
MALME-3M melanoma
  GI50: 2.4 µM
  TGI: 4.6 µM
MCF7 breast
  GI50: 1.36 µM
  TGI: 3.32 µM
MDA-MB-231 breast
  GI50: 1.2 µM
  TGI: 3.87 µM
MDA-MB-435
  GI50: 2.05 µM
  TGI: 6.34 µM
MOLT-4 leukemia
  GI50: 1.97 µM
  TGI: 5.21 µM
NCI-H226 lung
  GI50: 34.2 µM
  TGI: > 100 µM
NCI-H23 lung
  GI50: 2.58 µM
  TGI: 10.9 µM
NCI-H460 lung
  GI50: 1.82 µM
  TGI: 4.01 µM
NCI-H522 lung
  GI50: 1.86 µM
  TGI: 5.19 µM
NCI/ADR-RES ovarian
  GI50: 2 µM
  TGI: 5.63 µM
OVCAR-3 ovarian
  GI50: 1.82 µM
  TGI: 3.24 µM
OVCAR-4 ovarian
  GI50: 1.8 µM
  TGI: 4.12 µM
OVCAR-5 ovarian
  GI50: 13.8 µM
  TGI: 35.6 µM
OVCAR-8 ovarian
  GI50: 2 µM
  TGI: 5.01 µM
PC-3 prostate
  GI50: 8.26 µM
  TGI: > 100 µM
RPMI-8226 leukemia
  GI50: 3.73 µM
  TGI: 32.9 µM
RXF 393 renal
  GI50: 2.25 µM
  TGI: 7.53 µM
SF-268 CNS
  GI50: 5.43 µM
  TGI: 43.8 µM
SF-295 CNS
  GI50: 10.5 µM
  TGI: 31.2 µM
SF-539 CNS
  GI50: 7.62 µM
  TGI: 20.6 µM
SK-MEL-2 melanoma
  GI50: 12.6 µM
  TGI: 30.7 µM
SK-MEL-28 melanoma
  GI50: 1.92 µM
  TGI: 4.58 µM
SK-MEL-5 melanoma
  GI50: 3.47 µM
  TGI: 15.8 µM
SK-OV-3 ovarian
  GI50: 17.2 µM
  TGI: 33.8 µM
SN12C renal
  GI50: 4.19 µM
  TGI: 18.8 µM
SNB-19 CNS
  GI50: 3.6 µM
  TGI: > 100 µM
SNB-75 CNS
  GI50: 13 µM
  TGI: 27.4 µM
SR leukemia
  GI50: 1.07 µM
  TGI: 6.65 µM
SW-620 colon
  GI50: 1.85 µM
  TGI: 3.89 µM
T-47D breast
  GI50: 2.06 µM
  TGI: 6.94 µM
TK-10 renal
  GI50: 2.71 µM
  TGI: 5.32 µM
U251 CNS
  GI50: 1.68 µM
  TGI: 3.26 µM
UACC-257 melanoma
  GI50: 6.77 µM
  TGI: 21 µM
UACC-62 melanoma
  GI50: 1.54 µM
  TGI: 3.2 µM
UO-31 renal
  GI50: 15.5 µM
  TGI: 30.3 µM
